Values after ≈ are worked out from the molar mass of the structure shown.

Test [1] concerns Aspergillus flavus. In words: Antifungal activity against Aspergillus flavus at 1000 ug/mL after 72 hrs by agar diffusion assay. It counts as functional. As to conditions: read-out: IZ.
Test [2] deals with Aspergillus flavus. As to the kind of experiment: Antifungal activity against Aspergillus flavus by liquid dilution method. It is filed as functional.
The test system of test [3] is Staphylococcus aureus. In words: Antibacterial activity against Staphylococcus aureus at 1000 ug/mL after 72 hrs by agar diffusion assay. As to conditions: read-out: IZ. It counts as functional.
Test [4] has as its system Aspergillus niger. As to the kind of experiment: Antifungal activity against Aspergillus niger at 1000 ug/mL after 72 hrs by agar diffusion assay. The conditions noted are these: read-out: IZ. It is filed as functional.
The subject of test [5] is Streptococcus pyogenes. As to the kind of experiment: Antibacterial activity against Streptococcus pyogenes by liquid dilution method. It counts as functional.
The subject of test [6] is Salmonella typhimurium. As to the kind of experiment: Antibacterial activity against Salmonella Typhimurium by liquid dilution method. It counts as functional, Salmonella enterica subsp. enterica serovar Typhimurium. As to conditions: Salmonella enterica.
Test [7] relates to Streptococcus pyogenes. In words: Antibacterial activity against Streptococcus pyogenes at 1000 ug/mL after 72 hrs by agar diffusion assay. It counts as functional. As to conditions: read-out: IZ.
Test [8] has as its system Salmonella typhimurium. As to the kind of experiment: Antibacterial activity against Salmonella Typhimurium at 1000 ug/mL after 72 hrs by agar diffusion assay. It counts as functional, Salmonella enterica subsp. enterica serovar Typhimurium. The conditions noted are these: Salmonella enterica, read-out: IZ.
Test [9] deals with Klebsiella pneumoniae. As to the kind of experiment: Antibacterial activity against Klebsiella pneumoniae at 1000 ug/mL after 72 hrs by agar diffusion assay. It counts as functional. As to conditions: read-out: IZ.
The test system of test [10] is Escherichia coli. In words: Antibacterial activity against Escherichia coli by liquid dilution method. It is filed as functional.
Test [11] has as its system Staphylococcus aureus. In words: Antibacterial activity against Staphylococcus aureus by liquid dilution method. It is filed as functional.
The subject of test [12] is Aspergillus niger. As to the kind of experiment: Antifungal activity against Aspergillus niger by liquid dilution method. It counts as functional.
Test [13] has as its system Klebsiella pneumoniae. As to the kind of experiment: Antibacterial activity against Klebsiella pneumoniae by liquid dilution method. It counts as functional.
The test system of test [14] is Candida albicans. As to the kind of experiment: Antifungal activity against Candida albicans at 1000 ug/mL after 72 hrs by agar diffusion assay. It counts as functional. The conditions noted are these: read-out: IZ.
In test [15] the test system is Candida albicans. As to the kind of experiment: Antifungal activity against Candida albicans by liquid dilution method. It is filed as functional.
The subject of test [16] is Bacillus subtilis. In words: Antibacterial activity against Bacillus subtilis by liquid dilution method. It counts as functional.
The test system of test [17] is Escherichia coli. In words: Antibacterial activity against Escherichia coli at 1000 ug/mL after 72 hrs by agar diffusion assay. It is filed as functional. The conditions noted are these: read-out: IZ.
Test [18] has as its system Bacillus subtilis. As to the kind of experiment: Antibacterial activity against Bacillus subtilis at 1000 ug/mL after 72 hrs by agar diffusion assay. It counts as functional. The conditions noted are these: read-out: IZ.

Regarding `O=c1oc2c(Br)cc(Br)cc2cc1-c1nc2ccccc2c2nc3c4nsnc4ccc3n12`, the zone of inhibition at 1000 µg/mL in the test on Aspergillus flavus [1] turned out to be 37 mm; with Staphylococcus aureus [3] it was 48 mm; with Aspergillus niger [4] it was 34 mm; with Streptococcus pyogenes [7], 37 mm; in the test on Salmonella typhimurium [8] it was 45 mm; in the test on Klebsiella pneumoniae [9] it was 46 mm. Moreover, the zone of inhibition at 1000 µg/mL with Candida albicans [14] stood at 32 mm; with Escherichia coli [17], 42 mm; with Bacillus subtilis [18] it was 41 mm. In addition, the MIC against Aspergillus flavus [2] came out at 35 µg/mL (≈ 60.4 µM); with Streptococcus pyogenes [5] it was 15 µg/mL (≈ 25.9 µM); with Salmonella typhimurium [6], 2.5 µg/mL (≈ 4.32 µM); against Escherichia coli [10], 10 µg/mL (≈ 17.3 µM); against Staphylococcus aureus [11], 5 µg/mL (≈ 8.63 µM); in the test on Aspergillus niger [12] it was 25 µg/mL (≈ 43.2 µM). In addition, the MIC came to 5 µg/mL (≈ 8.63 µM) in the test with Klebsiella pneumoniae [13], 40 µg/mL (≈ 69.1 µM) against Candida albicans [15] and 10 µg/mL (≈ 17.3 µM) in the test with Bacillus subtilis [16].
On to `Cc1cccc2cc(-c3nc4ccccc4c4nc5c6nsnc6ccc5n34)c(=O)oc12`, for which the zone of inhibition at 1000 µg/mL with Aspergillus flavus [1] came out at 33 mm; in the test with Staphylococcus aureus [3], 29 mm; in the test on Aspergillus niger [4], 28 mm; in the test on Streptococcus pyogenes [7] it was 24 mm; in the test with Salmonella typhimurium [8], 29 mm; in the test on Klebsiella pneumoniae [9], 32 mm. Besides, the zone of inhibition at 1000 µg/mL in the test on Candida albicans [14] was 30 mm; in the test on Escherichia coli [17], 20 mm; with Bacillus subtilis [18], 26 mm. In addition, the minimal inhibitory concentration (MIC) against Aspergillus flavus [2] came out at 40 µg/mL (≈ 91.9 µM); against Streptococcus pyogenes [5] it was 45 µg/mL (≈ 103 µM); against Salmonella typhimurium [6], 30 µg/mL (≈ 68.9 µM); in the test with Escherichia coli [10] it was 45 µg/mL (≈ 103 µM); with Staphylococcus aureus [11] it was 40 µg/mL (≈ 91.9 µM); in the test on Aspergillus niger [12] it was 50 µg/mL (≈ 115 µM). Moreover, the MIC amounted to 25 µg/mL (≈ 57.4 µM) against Klebsiella pneumoniae [13], 35 µg/mL (≈ 80.4 µM) in the test on Candida albicans [15] and 50 µg/mL (≈ 115 µM) against Bacillus subtilis [16].
In the case of `O=c1oc2ccc([N+](=O)[O-])cc2cc1-c1nc2ccccc2c2nc3c4nsnc4ccc3n12`, the zone of inhibition at 1000 µg/mL with Aspergillus flavus [1] is 44 mm; with Staphylococcus aureus [3], 27 mm; in the test on Aspergillus niger [4] it was 36 mm; in the test on Streptococcus pyogenes [7], 29 mm; with Salmonella typhimurium [8] it was 29 mm; in the test on Klebsiella pneumoniae [9] it was 27 mm. Moreover, the zone of inhibition at 1000 µg/mL in the test on Candida albicans [14] is 38 mm; in the test with Escherichia coli [17], 31 mm; with Bacillus subtilis [18] it was 30 mm. For the same compound, the MIC against Aspergillus flavus [2] came out at 25 µg/mL (≈ 53.6 µM); with Streptococcus pyogenes [5] it was 30 µg/mL (≈ 64.3 µM); in the test with Salmonella typhimurium [6], 35 µg/mL (≈ 75 µM); against Escherichia coli [10], 35 µg/mL (≈ 75 µM); with Staphylococcus aureus [11] it was 35 µg/mL (≈ 75 µM); with Aspergillus niger [12], 35 µg/mL (≈ 75 µM). Moreover, the figures for the minimum inhibitory concentration (MIC) against Klebsiella pneumoniae [13], with Candida albicans [15] and against Bacillus subtilis [16] were 45 µg/mL (≈ 96.5 µM), 30 µg/mL (≈ 64.3 µM) and 45 µg/mL (≈ 96.5 µM), respectively.

The record behind these values is ChEMBL document CHEMBL1641588, “3-[Benzimidazo- and 3-[benzothiadiazoleimidazo-(1,2-c)quinazolin-5-yl]-2H-chromene-2-ones as potent antimicrobial agents” (2011).
